Key:
[1] = system: MRSA; assay: Neutropenic murine thigh infection model; assay type: in vivo, mice
Experimental: The neutropenic murine thigh infection model experiment was performed as described in the literature. Six-week-old SPF-ICR female mice weighing 24–28 g were used for this study. The mice were injected with cyclophosphamide (Mead Johnson Pharmaceuticals, Evansville, Indiana—IN, USA) at a dose of 150 mg/kg 4 days and at a dose of 100 mg/kg 1 day before the experiment to reduce neutrophils and achieve immunosuppression (<0.1 × 10^9/L). A total of 0.1 mL MH broth (MRSA concentration approximately 10^7 CFU/mL) was injected into the posterior thigh of mice to establish the infection model. After the thighs of the mice were infected for 2 h, these mice were randomly divided into 3 groups (3 per group). […] A total of 24 h after the completion of the drug, the mice were euthanized and their thigh tissues were collected. Then, their thigh tissues were weighed and homogenized, respectively, in 3 mL of iced sterile saline. Tissue homogenate was serially diluted 10-fold and plated on MH agar. The resulting bacterial colonies were determined after incubation for 24 h.

[2] = target: CYP3A4 (Homo sapiens, UniProt P08684); assay: Human liver microsomal CYP3A4 enzyme inhibition; assay type: in vitro ADME; design: from tissue; host or cells: human liver microsomes; conditions: human liver microsomes, testosterone substrate
Chain of CYP3A4 (P08684 whole entry): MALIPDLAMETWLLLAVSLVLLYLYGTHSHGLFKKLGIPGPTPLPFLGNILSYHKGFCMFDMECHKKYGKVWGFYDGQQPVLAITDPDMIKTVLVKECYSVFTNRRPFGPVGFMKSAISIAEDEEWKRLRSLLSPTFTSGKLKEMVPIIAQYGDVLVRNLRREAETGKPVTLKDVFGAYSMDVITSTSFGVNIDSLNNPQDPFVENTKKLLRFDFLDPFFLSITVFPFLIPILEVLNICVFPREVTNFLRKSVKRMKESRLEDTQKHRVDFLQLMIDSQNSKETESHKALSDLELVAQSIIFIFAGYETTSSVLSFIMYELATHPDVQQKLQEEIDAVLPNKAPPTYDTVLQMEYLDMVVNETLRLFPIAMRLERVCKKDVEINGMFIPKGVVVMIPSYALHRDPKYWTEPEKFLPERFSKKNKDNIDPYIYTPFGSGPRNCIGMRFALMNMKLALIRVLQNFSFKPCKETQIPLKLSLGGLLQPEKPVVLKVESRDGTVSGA
Experimental: The inhibitory effect of compound 9 on CYP3A4 was evaluated according to previous work. The experiments were performed in 96-well plates with a final incubation volume of 100 µL per well. A total of 20 µL of compound 9 was added to 96-well plates, with final concentrations of 0.25, 0.5, 1, 5, 10, and 50 µM. Then, 40 µL of human liver microsomes (final concentration of human liver microsomes was 0.2 mg/mL) and 20 µL of probe substrates (final concentration of testosterone was 20 μmol/L) in 0.1 M Tris (pH = 7.4) were added. After preincubation at 37 °C for 5 min, the reaction started with the addition of 20 µL of NADPH (final concentration is 1 mmol/L). Then, the plate was incubated at 37 °C for 5 min, and then 100 μL acetonitrile (with loratadine used as an internal standard) was added to terminate the reaction. After the reactions were completed, the plates were centrifuged and the supernatants were analyzed for the loratadine and probe substrates testosterone by LC-MS/MS.

C=C[C@]1(C)C[C@@H](OC(=O)CNc2ccc(F)cc2)[C@]2(C)[C@H](C)CC[C@]3(CCC(=O)[C@H]32)[C@@H](C)[C@@H]1O [Compound 9, 22-(4-Fluoroanilineyl)-22-deoxypleuromutilin]
reduction of MRSA load in thigh compared with tiamulin ([1]; 20 mg/kg each, difference to tiamulin group): ~ 0.7 log10 CFU/mL
reduction of MRSA load in thigh ([1]; 20 mg/kg intravenously, 24 h, compared to the no-drug control group): ~ 1.3 log10 CFU/mL
IC50 [2]: 6.19 µM
IC50 ([2]; converted with MW): 6.19 µM
